Molecular target: human Cat S (Homo sapiens, UniProt P25774)
Assay: Cathepsin enzyme inhibition assay (fluorogenic peptide substrate cleavage)
Type: biochemical
Details: human Cat S 1 nM; substrate Z-Val-Val-Arg-AMC 20 μM; pH 6.5; fluorescence over 20 minutes
How it was run: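 Fluorogenic cleavage of Z-Val-Val-Arg-AMC (20 μM) by 1 nM enzyme in 100 mM potassium phosphate pH 6.5, 5 mM EDTA, 5 mM DTT, 0.001% Triton X-100. Reaction started with substrate; fluorescence (ex 360/em 465 nm) followed over 20 minutes. IC50 by standard methods.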

Chain of human Cat S (P25774 115-331): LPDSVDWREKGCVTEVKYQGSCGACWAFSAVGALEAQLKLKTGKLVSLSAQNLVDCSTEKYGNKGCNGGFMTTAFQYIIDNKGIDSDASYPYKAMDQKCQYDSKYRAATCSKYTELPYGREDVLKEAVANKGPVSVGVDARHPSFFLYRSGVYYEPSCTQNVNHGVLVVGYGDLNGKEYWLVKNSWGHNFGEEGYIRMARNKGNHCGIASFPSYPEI

Row | SMILES | IC50 [nM]
1 | N#CCNC(=O)[C@@H]1C[C@@H](S(=O)(=O)c2ccccc2)C[C@H]1C(=O)N1CCOCC1 [Example 1, (1R,2R,4R)-4-Benzenesulfonyl-2-(morpholine-4-carbonyl)-cyclopentanecarboxylic acid cyanomethyl-amide] | 0.6
2 | N#CC1(NC(=O)[C@@H]2C[C@@H](S(=O)(=O)c3ccccc3)C[C@H]2C(=O)N2CCOCC2)CC1 [Example 2, (1R,2R,4R)-4-Benzenesulfonyl-2-(morpholine-4-carbonyl)-cyclopentanecarboxylic acid (1-cyano-cyclopropyl)-amide] | 0.7
3 | N#CCNC(=O)[C@@H]1C[C@@H](S(=O)(=O)c2ccccc2Cl)C[C@H]1C(=O)N1CCOCC1 [Example 3, (1R,2R,4R)-4-(2-Chloro-benzenesulfonyl)-2-(morpholine-4-carbonyl)-cyclopentanecarboxylic acid cyanomethyl-amide] | 0.5
4 | Cc1ccc(S(=O)(=O)[C@@H]2C[C@@H](C(=O)NCC#N)[C@H](C(=O)N3CCOCC3)C2)cc1 [Example 4, (1R,2R,4R)-2-(Morpholine-4-carbonyl)-4-(toluene-4-sulfonyl)-cyclopentanecarboxylic acid cyanomethyl-amide] | 0.6
5 | Cc1cccc(S(=O)(=O)[C@@H]2C[C@@H](C(=O)NCC#N)[C@H](C(=O)N3CCOCC3)C2)c1 [Example 5, (1R,2R,4R)-2-(Morpholine-4-carbonyl)-4-(toluene-3-sulfonyl)-cyclopentanecarboxylic acid cyanomethyl-amide] | 0.6
6 | N#CCNC(=O)[C@@H]1C[C@@H](S(=O)(=O)c2ccc(F)cc2F)C[C@H]1C(=O)N1CCOCC1 [Example 6, (1R,2R,4R)-4-(2,4-Difluoro-benzenesulfonyl)-2-(morpholine-4-carbonyl)-cyclopentanecarboxylic acid cyanomethyl-amide] | 0.8
7 | N#CCNC(=O)[C@@H]1C[C@@H](S(=O)(=O)c2ccc(F)c(Cl)c2)C[C@H]1C(=O)N1CCOCC1 [Example 7, (1R,2R,4R)-4-(3-Chloro-4-fluoro-benzenesulfonyl)-2-(morpholine-4-carbonyl)-cyclopentanecarboxylic acid cyanomethyl-amide] | 0.7
8 | Cc1cc(Cl)ccc1S(=O)(=O)[C@@H]1C[C@@H](C(=O)NCC#N)[C@H](C(=O)N2CCOCC2)C1 [Example 8, (1R,2R,4R)-4-(4-Chloro-2-methyl-benzenesulfonyl)-2-(morpholine-4-carbonyl)-cyclopentanecarboxylic acid cyanomethyl-amide] | 0.4
9 | N#CC1(NC(=O)[C@@H]2C[C@@H](S(=O)(=O)c3ccccc3Cl)C[C@H]2C(=O)N2CCOCC2)CC1 [Example 9, (1R,2R,4R)-4-(2-Chloro-benzenesulfonyl)-2-(morpholine-4-carbonyl)-cyclopentanecarboxylic acid (1-cyano-cyclopropyl)-amide] | 0.9
10 | N#CC1(NC(=O)[C@@H]2C[C@@H](S(=O)(=O)c3ccccc3)C[C@H]2C(=O)O)CC1 [Example 10, (1R,2R,4R)-4-Benzenesulfonyl-2-(1-cyano-cyclopropylcarbamoyl)-cyclopentanecarboxylic acid] | 425
11 | N#CC1(NC(=O)[C@@H]2C[C@@H](S(=O)(=O)c3ccccc3)C[C@H]2C(=O)N2CC3(COC3)C2)CC1 [Example 11, (1R,2R,4R)-4-Benzenesulfonyl-2-(2-oxa-6-aza-spiro[3.3]heptane-6-carbonyl)-cyclopentanecarboxylic acid (1-cyano-cyclopropyl)-amide] | 3
12 | N#CC1(NC(=O)[C@@H]2C[C@@H](S(=O)(=O)c3ccccc3)C[C@H]2C(=O)N2CCCCC2)CC1 [Example 12, (1R,2R,4R)-4-Benzenesulfonyl-2-(piperidine-1-carbonyl)-cyclopentanecarboxylic acid (1-cyano-cyclopropyl)-amide] | 0.8
13 | N#CC1(NC(=O)[C@@H]2C[C@@H](S(=O)(=O)c3ccccc3)C[C@H]2C(=O)N2CCC(O)CC2)CC1 [Example 13, (1R,2R,4R)-4-Benzenesulfonyl-2-(4-hydroxy-piperidine-1-carbonyl)-cyclopentanecarboxylic acid (1-cyano-cyclopropyl)-amide] | 1
14 | N#CC1(NC(=O)[C@@H]2C[C@@H](S(=O)(=O)c3ccccc3)C[C@H]2C(=O)N2CCNCC2)CC1 [Example 14, (1R,2R,4R)-4-Benzenesulfonyl-2-(piperazine-1-carbonyl)-cyclopentanecarboxylic acid (1-cyano-cyclopropyl)-amide] | 10.9
15 | N#CC1(NC(=O)[C@@H]2C[C@@H](S(=O)(=O)c3ccccc3)C[C@H]2C(=O)N2CC(O)C2)CC1 [Example 15, (1R,2R,4R)-4-Benzenesulfonyl-2-(3-hydroxy-azetidine-1-carbonyl)-cyclopentanecarboxylic acid (1-cyano-cyclopropyl)-amide] | 7.4
16 | C[C@@H]1CN(C(=O)[C@@H]2C[C@H](S(=O)(=O)c3ccccc3)C[C@H]2C(=O)NC2(C#N)CC2)C[C@H](C)O1 [Example 16, (1R,2R,4R)-4-Benzenesulfonyl-2-((2S,6R)-2,6-dimethyl-morpholine-4-carbonyl)-cyclopentanecarboxylic acid (1-cyano-cyclopropyl)-amide] | 0.4
17 | N#CC1(NC(=O)[C@@H]2C[C@@H](S(=O)(=O)c3ccccc3)C[C@H]2C(=O)N2C[C@H]3CC[C@@H](C2)O3)CC1 [Example 17, (1R,2R,4R)-4-Benzenesulfonyl-2-((1R,5S)-8-oxa-3-aza-bicyclo[3.2.1]octane-3-carbonyl)-cyclopentanecarboxylic acid (1-cyano-cyclopropyl)-amide] | 1.1

Results, then the molecule that gave them:

Row | IC50 [nM] | SMILES
18 | 1200 | COC[C@@H]1C[C@@H](S(=O)(=O)c2ccccc2Cl)C[C@H]1C(=O)NCC#N (single isomer, unassigned) [Example 104]
19 | 22.3 | COC[C@@H]1C[C@H](S(=O)(=O)c2ccccc2Cl)C[C@H]1C(=O)NC1(C#N)CC1 (single isomer, unassigned) [Example 105]
20 | 1010 | COC[C@@H]1C[C@@H](S(=O)(=O)c2ccccc2Cl)C[C@H]1C(=O)NC1(C#N)CC1 (single isomer, unassigned) [Example 106]
21 | 4.8 | CO[C@@H]1C[C@H](S(=O)(=O)c2ccc(Br)cc2C(F)(F)F)C[C@H]1C(=O)NC1(C#N)CC1 (single isomer, unassigned) [Example 137]
22 | 0.523 | N#CCNC(=O)[C@@H]1C[C@@H](S(=O)(=O)c2ccc(F)cc2Cl)C[C@H]1COc1ccc(F)cc1 (single isomer, unassigned) [Example 143]
23 | 145 | N#CCNC(=O)[C@@H]1C[C@H](S(=O)(=O)c2ccc(F)cc2Cl)C[C@H]1COc1ccc(F)cc1 (single isomer, unassigned) [Example 144]
24 | 1.25 | N#CC1(NC(=O)[C@@H]2C[C@@H](S(=O)(=O)c3ccc(F)cc3Cl)C[C@H]2COc2ccc(F)cc2)CC1 (single isomer, unassigned) [Example 145]
25 | 2.25 | N#CC1(NC(=O)[C@@H]2C[C@H](S(=O)(=O)c3ccc(F)cc3Cl)C[C@H]2COc2ccc(F)cc2)CC1 (single isomer, unassigned) [Example 146]

Source: patent publication US20100317647A1 (priority 2009, published 2010)
